Values joined by “and” are separate entries in the source; they are usually repeats but may differ in a detail not shown here. Equal entries are not always repeated. Records with an inconclusive call do not appear.
Tested on: nude mice, HT29 intrarenal xenograft, tumor weight T/C
Assay: NCI In Vivo Anticancer Drug Screen. Data for tumor model HT29;CX-1 Human Adenocarcinoma (MER+) (intrarenal inoculation) in NU/NU Swiss (nude) mice
Conditions: endpoint: mean tumor weight change, higher = larger tumour
Protocol: The antitumor activity of compounds was measured in mice bearing transplantable tumors. Survival or tumor size were measured and the results are expressed as the measurement made in the treated group (T) divided by the measurement made in the vehicle treated control group (C). The tumor model used in this assay is HT29;CX-1 Human Adenocarcinoma (MER+) (intrarenal inoculation) in NU/NU Swiss (nude) mice

[1] = dose: 37.5 mg/kg/injection, schedule: Q04DX004 (sc), vehicle: Klucel (hydroxypropylcellulose) (HPC)
[2] = dose: 75.0 mg/kg/injection, schedule: Q04DX004 (sc), vehicle: Klucel (hydroxypropylcellulose) (HPC)
[3] = dose: 800.0 mg/kg/injection, schedule: Q04DX004 (sc), vehicle: suspension in saline
[4] = dose: 100.0 mg/kg/injection, schedule: Q01DX010 (sc), vehicle: Klucel (hydroxypropylcellulose) (HPC)
[5] = dose: 400.0 mg/kg/injection, schedule: Q01DX010 (sc), vehicle: Klucel (hydroxypropylcellulose) (HPC)
[6] = dose: 150.0 mg/kg/injection, schedule: Q04DX004 (sc), vehicle: saline with Tween-80
[7] = dose: 300.0 mg/kg/injection, schedule: Q04DX004 (sc), vehicle: saline with Tween-80
[8] = dose: 600.0 mg/kg/injection, schedule: Q04DX004 (sc), vehicle: saline with Tween-80
[9] = dose: 1200.0 mg/kg/injection, schedule: Q04DX004 (sc), vehicle: saline with Tween-80
[10] = dose: 100.0 mg/kg/injection, schedule: Q01DX010 (sc), vehicle: saline with Tween-80
[11] = dose: 400.0 mg/kg/injection, schedule: Q01DX010 (sc), vehicle: saline with Tween-80
[12] = dose: 200.0 mg/kg/injection, schedule: Q01DX010 (sc), vehicle: Klucel (hydroxypropylcellulose) (HPC)
[13] = dose: 200.0 mg/kg/injection, schedule: Q01DX010 (sc), vehicle: saline with Tween-80
[14] = dose: 2.5 mg/kg/injection, schedule: Q01DX010 (sc), vehicle: saline
[15] = dose: 5.0 mg/kg/injection, schedule: Q01DX010 (sc), vehicle: saline
[16] = dose: 10.0 mg/kg/injection, schedule: Q01DX010 (sc), vehicle: saline
[17] = dose: 800.0 mg/kg/injection, schedule: Q01DX010 (sc), vehicle: saline with Tween-80

O=C1C=CC(=O)N1c1ccc(Cl)cc1
T/C [1]: 70 % of control | T/C [2]: 70 % of control | T/C (dose: 150.0 mg/kg/injection, schedule: Q04DX004 (sc), vehicle: Klucel (hydroxypropylcellulose) (HPC)): 106 % of control

Cc1ccc2nc(-c3ccc4nc(-c5ccc(N=Nc6ccc(-c7nc8ccc(-c9nc%10ccc(C)c(S(=O)(=O)O)c%10s9)cc8s7)cc6)cc5)sc4c3)sc2c1S(=O)(=O)O
T/C (dose: 200.0 mg/kg/injection, schedule: Q04DX004 (sc), vehicle: suspension in saline): 190 % of control | T/C (dose: 400.0 mg/kg/injection, schedule: Q04DX004 (sc), vehicle: suspension in saline): 109 % of control | T/C [3]: 221 % of control | T/C (dose: 1600.0 mg/kg/injection, schedule: Q04DX004 (sc), vehicle: suspension in saline): 50 % of control

C1CCC2OCCOCCOC3CCCCC3OCCOCCOC2C1 (configuration not stated)
T/C [1]: 89 % of control | T/C [2]: 89 % of control

O=[N+]([O-])/C=C\c1ccc2c(c1)OCO2
T/C [4]: 55 % of control | T/C [5]: 163 % of control | T/C (dose: 800.0 mg/kg/injection, schedule: Q01DX010 (sc), vehicle: Klucel (hydroxypropylcellulose) (HPC)): 77 % of control

C=C/C(C)=C/[C@H](C)C(=O)C[C@H](O)CC1CC(=O)NC(=O)C1
T/C [6]: 91 % of control | T/C [7]: 100 % of control | T/C [8]: 67 % of control | T/C [9]: 63 % of control

Clc1ccc(CN2COc3c(ccc4cccnc34)C2)cc1Cl
T/C [10]: 73 % of control | T/C [11]: 60 % of control and 72 % of control

OCC1(CO)COC2(CCCCC2)N1
T/C (dose: 600.0 mg/kg/injection, schedule: Q04DX004 (sc), vehicle: suspension in saline): 115 % of control | T/C (dose: 1200.0 mg/kg/injection, schedule: Q04DX004 (sc), vehicle: suspension in saline): 56 % of control | T/C (dose: 2400.0 mg/kg/injection, schedule: Q04DX004 (sc), vehicle: suspension in saline): 109 % of control

COC1=NCN=C2SC=C(N)N=C12
T/C (dose: 37.5 mg/kg/injection, schedule: Q04DX004 (sc), vehicle: saline): 86 % of control | T/C (dose: 75.0 mg/kg/injection, schedule: Q04DX004 (sc), vehicle: saline): 70 % of control | T/C (dose: 150.0 mg/kg/injection, schedule: Q04DX004 (sc), vehicle: saline): 73 % of control

CC(C)(C)N1CC1CNC(=O)C(=O)NCC1CN1C(C)(C)C (configuration not stated)
T/C (dose: 25.0 mg/kg/injection, schedule: Q04DX004 (sc), vehicle: saline with Tween-80): 109 % of control

CC1CN=C(c2ccc(NC(=O)c3ccc(C(=O)Nc4ccc(C5=NCC(C)N5)cc4)cc3)cc2)N1 (configuration not stated)
T/C (dose: 25.0 mg/kg/injection, schedule: Q01DX010 (sc), vehicle: Klucel (hydroxypropylcellulose) (HPC)): 65 % of control | T/C (dose: 50.0 mg/kg/injection, schedule: Q01DX010 (sc), vehicle: Klucel (hydroxypropylcellulose) (HPC)): 34 % of control | T/C [4]: 37 % of control | T/C [12]: 44 % of control

Cc1ccccc1SSc1ccccc1C
T/C [10]: 62 % of control | T/C [13]: 68 % of control

CC(=O)C(O)N1C(=O)C=CC1=O (configuration not stated)
T/C [14]: 123 % of control | T/C [15]: 107 % of control | T/C [16]: 52 % of control | T/C (dose: 20.0 mg/kg/injection, schedule: Q01DX010 (sc), vehicle: saline): 30 % of control

O=C(O)C1CC(c2ccccc2)=NN1c1ccccc1 (configuration not stated)
T/C (dose: 75.0 mg/kg/injection, schedule: Q04DX004 (sc), vehicle: water): 76 % of control | T/C (dose: 150.0 mg/kg/injection, schedule: Q04DX004 (sc), vehicle: water): 79 % of control | T/C (dose: 300.0 mg/kg/injection, schedule: Q04DX004 (sc), vehicle: water): 74 % of control

CNC(=O)OCc1c(COC(=O)NC)c(-c2ccc(Cl)c(Cl)c2)n2c1Cc1ccccc1C2
T/C (dose: 300.0 mg/kg/injection, schedule: Q04DX004 (sc), vehicle: distilled water + Tween-80): 109 % of control | T/C (dose: 600.0 mg/kg/injection, schedule: Q04DX004 (sc), vehicle: distilled water + Tween-80): 119 % of control | T/C (dose: 1200.0 mg/kg/injection, schedule: Q04DX004 (sc), vehicle: distilled water + Tween-80): 61 % of control | T/C (dose: 2400.0 mg/kg/injection, schedule: Q04DX004 (sc), vehicle: distilled water + Tween-80): 65 % of control

OC(CBr)C(O)C(O)C(O)CBr (configuration not stated)
T/C (dose: 15.0 mg/kg/injection, schedule: Q01DX010 (sc), vehicle: Klucel (hydroxypropylcellulose) (HPC)): 82 % of control | T/C (dose: 30.0 mg/kg/injection, schedule: Q01DX010 (sc), vehicle: Klucel (hydroxypropylcellulose) (HPC)): 44 % of control | T/C (dose: 120.0 mg/kg/injection, schedule: Q01DX010 (sc), vehicle: Klucel (hydroxypropylcellulose) (HPC)): 43 % of control | T/C [12]: 101 % of control | T/C [5]: 59 % of control

Cn1cnc([N+](=O)[O-])c1[Se]c1nc(N)nc2nc[nH]c12
T/C (dose: 50.0 mg/kg/injection, schedule: Q01DX010 (sc), vehicle: water): 100 % of control

COc1cccc2c1C(=O)c1c(O)c3c(c(O)c1C2=O)CC(O)(C(=O)CO)CC3OC1CC(N)C(O)C(C)O1 (configuration not stated)
T/C (dose: 48.0 mg/kg/injection, schedule: Q01DX010 (sc), vehicle: saline): 90 % of control

Cc1cc(O)c(N=Nc2ccc(C(=O)O)cc2)cc1C
T/C [8]: 107 % of control | T/C (dose: 2400.0 mg/kg/injection, schedule: Q04DX004 (sc), vehicle: saline with Tween-80): 154 % of control

OCCN1CCN(CCCN2c3ccccc3Sc3ccc(C(F)(F)F)cc32)CC1
T/C (dose: 1.25 mg/kg/injection, schedule: Q01DX010 (sc), vehicle: saline): 121 % of control | T/C [14]: 58 % of control | T/C [15]: 118 % of control | T/C [16]: 92 % of control

COC1=C(OC)C(=O)C(C/C=C(\C)CC/C=C(\C)CC/C=C(\C)CC/C=C(\C)CC/C=C(\C)CC/C=C(\C)CC/C=C(\C)CC/C=C(\C)CC/C=C(\C)CCC=C(C)C)=C(C)C1=O
T/C [10]: 113 % of control | T/C [13]: 98 % of control | T/C [11]: 105 % of control | T/C [17]: 46 % of control

CN(C)C(=O)c1cccc(COc2ccc(N3C(N)=NC(N)=NC3(C)C)cc2Cl)c1
T/C (dose: 12.5 mg/kg/injection, schedule: Q01DX010 (sc), vehicle: water): 82 % of control

CN=C(N)N/N=C(\C)c1ccc2c(c1)Cc1ccccc1-2
T/C [6]: 116 % of control | T/C [7]: 91 % of control | T/C [8]: 46 % of control | T/C [9]: 81 % of control

Cc1cc(NCCCCCCNc2cc(C)nc3cc(N(C)C)ccc23)c2ccc(N(C)C)cc2n1
T/C (dose: 37.5 mg/kg/injection, schedule: Q04DX004 (sc), vehicle: distilled water + Tween-80 + alcohol): 112 % of control | T/C (dose: 75.0 mg/kg/injection, schedule: Q04DX004 (sc), vehicle: distilled water + Tween-80 + alcohol): 42 % of control

CCN(CC)CC[n+]1ccc2c(C)c3[nH]c4ccc(O)cc4c3c(C)c2c1
T/C (dose: 12.5 mg/kg/injection, schedule: Q04DX004 (sc), vehicle: suspension in saline): 56 % of control | T/C (dose: 25.0 mg/kg/injection, schedule: Q04DX004 (sc), vehicle: suspension in saline): 24 % of control

C=C1C(=O)OC2CC(C)C3C4OC4C(O)C3(C)C(O)C12 (configuration not stated)
T/C (dose: 50.0 mg/kg/injection, schedule: Q04DX004 (sc), vehicle: saline with Tween-80): 99 % of control | T/C (dose: 100.0 mg/kg/injection, schedule: Q04DX004 (sc), vehicle: saline with Tween-80): 121 % of control | T/C (dose: 200.0 mg/kg/injection, schedule: Q04DX004 (sc), vehicle: saline with Tween-80): 107 % of control

O=CN(SSN(C=O)C1CCCCC1)C1CCCCC1
T/C [10]: 36 % of control | T/C [13]: 178 % of control | T/C [11]: 85 % of control | T/C [17]: 90 % of control

CCOC(=O)C1=C(C#N)C2(CCC(OCc3ccccc3)CC2)C(=O)O1 (configuration not stated)
T/C (dose: 100.0 mg/kg/injection, schedule: Q04DX004 (sc), vehicle: suspension in saline): 91 % of control | T/C [3]: 110 % of control

Reference: PubChem BioAssay AID206 (DTP/NCI, 2004)
